# Assay results as given in US8785388B2, “TAT-BH3 methods for treating arthritis” (Saint Louis University, priority 2007, dated 2014).
# Square brackets hold non-standard residues; d marks the D form. Peptide text beside a SMILES is read from it. Orn = NCCC[C@H](N)C(=O)O
# How the values were obtained:
# [1] = test system: K/B×N serum transfer-induced arthritis; assay: K/B×N serum transfer-induced arthritis, ankle circumference (joint swelling); type: in vivo, mice; details: for reduction of development of arthritis: day 4
# Source text: The seven-week-old progeny from homozygous KRN TCR transgenic mice (C57BL/6 background) crossed with non-obese diabetes (NOD) mice (K/B×N) were euthanized, peripheral blood was isolated, and serum were collected and pooled. One hundred and fifty microliters of K/B×N serum were intraperitoneally injected on each flank of 6-week old wt mice.
# (§1) At each time point and prior to euthanasia, the degree of arthritis as indicated by joint swelling was quantitated by measuring two perpendicular diameters of the ankles using a caliper (Lange Caliper: Cambridge Scientific Industries, Cambridge Mass.). Joint circumference was calculated using the geometric formula of ellipse circumference (2πX √(a^2+b^2)/2). Following euthanasia, serum was isolated from peripheral blood by cardiac stick and ankle joints were removed. One of the ankle joints was fixed in 10% neutral buffered formalin for 24 hours, decalcified in EDTA-decalcification buffer for two weeks, embedded in paraffin, and sectioned. The other ankle joint was placed in liquid nitrogen, grounded into a fine powder by mortal and pestle, digested in protein lysis buffer ([…], 0.5% NP-40, 50 mM Tris, and 2 mM EDTA) in the presence of phosphatase and protease inhibitors, and homogenized on ice for 20 seconds. To examine any toxicity due to systemic delivery of TAT-Bim peptides, alkaline phosphatase (ALP), […] (AST), alanine aminotransferase (ALT), and blood urea nitrogen levels were measured.
# Therefore, peptides to the BH3 domain of Bim were used that are fused to polycationic peptide derived from HIV-1 TAT. These peptides have shown to activate Bak and Bax, suppress Bcl-2 and Mcl-1, induce mitochondrial permeability, and release mitochondrial cytochrome c. Mice were intraperitoneally injected with K/B×N serum to induce the effector phase of inflammatory arthritis.
# [2] = test system: macrophages in arthritic joints; assay: Macrophage numbers in ankle sections stained for F4/80 antigen; type: in vivo, mice
# Source text: FIG. 4A is representative photomicrograph of ankle sections stained for F4/80 antigen from saline- and BH3-peptide treated mice.
# TAT-BH3 peptides treatment reduces the numbers of myeloid cells in arthritic joints. Neutrophils and macrophages are required for the development of K/B×N serum transfer induced arthritis 40-42. To this end, the numbers of polymorphonuclear cell and macrophages in saline and BH3 peptide arthritic mice were quantified. […] The milieu of the RA joint is crucial for the initiation and the perpetuation of inflammatory arthritis. Previous studies have shown that mice lacking Bim display increased levels of pro-inflammatory factors in the joint that is associated with increased numbers of neutrophils and macrophages and more articular destruction.
# [3] = test system: IL-1β, TNFα, MCP-1, KC, MMP-3; assay: ELISA of pro-inflammatory molecules in ankle extracts; type: in vivo, mouse; set-up: IL-1β / TNFα / MCP-1 / KC / MMP-3: unit not given here; details: ankle joints
# Method: as §1
# For detection of mouse IL-1β, TNFα, MCP-1, KC, or MMP-3 in ankle extracts, sandwich ELISAs were performed according to the manufacturer's instructions (R & D Systems, Minneapolis, Minn.). The sensitivity for all cytokines was 15.6 pg/mL for IL-1β and KC, 7.813 pg/mL for TNFα and MCP-1, and 0.312 ng/mL for MMP3. ELISAs were quantitated by absorbance at 450 nm on a microplate reader (BioRad, Hercules, Calif.). Data obtained using ELISA on ankle extracts were normalized by the total protein concentration (μg/μL) for each individual ankle extract.
# Mice were euthanized at seven days post-serum transfer. Ankle joints from each mouse were isolated, snap frozen, grounded into a fine powder, lysed, and examined for IL-1β, TNFα, MCP-1, KC, and MMP-3 production using an ELISA. Data are shown as μg/μL per joint. Values represent the mean±standard error, which were compared by Student's t-test.
# [4] = test system: IL-1β, TNFα, MCP-1, KC; assay: Circulating cytokine levels in serum; type: in vivo, mice; details: between saline, TAT-inactive BH3 and TAT-BH3 groups
# Method: as §1
# TAT-BH3 peptides treatment reduces the numbers of myeloid cells in arthritic joints. […] To this end, the numbers of polymorphonuclear cell and macrophages in saline and BH3 peptide arthritic mice were quantified. […]
# [5] = Toxicity: serum ALP, AST, ALT, blood urea nitrogen and liver histology in arthritic mice; type: in vivo
# Method: as §1
# Paraffin embedded ankle or liver sections were stained with hematoxylin and eosin (H&E), Safranin O and methyl green. Histopathological scoring was performed and ankle sections were evaluated by examining at least 3 sections/ankle and 3 fields/section at 400× magnification. H&E ankle sections were scored on a 0-5 scale for inflammation, with 0=normal, 1=minimal infiltration, 2=mild infiltration, 3=moderate infiltration, […], mad 5=severe infiltration. Bone erosion was scored on a 0-5 scale by viewing H&E ankle sections, with 0=no or normal bone resorption, 1=small areas of resorption, 2=more numerous areas of resorption, 3=obvious resorption, 4=full thickness defects in the bone without distortion of the profile, 5=full thickness defects in the bone with distortion of the profile. H&E ankle stained sections were scored on a 0-5 scale for pannus formation, with 0=no pannus formation, 1=minimal pannus formation, 2=mild pannus formation, 3=moderate pannus formation, 4=marked pannus formation, and 5=severe pannus formation. H&E and Safranin 0 and methyl green sections were scored on a 0-5 scale for cartilage damage, with 0=no damage, 1-2=superficial cartilage destruction, 3-4=cartilage destruction to middle zone, 5=cartilage destruction to tide mark. Polymorphonuclear (PMN) leukocyte infiltration: 0=no PMNs, 1=rare scattered PMNs, 2=more frequent scattered PMNs, 3=small clusters of PMNs, 4=larger clusters of PMNs, mad 5=sheets of PMNs (abscess). Histopathological scoring was conducted on an Olympus BX40 microscope (1000×). Photographs were taken on a Nikon microscope equipped with the Nikon digital camera DMX 1200.
# [6] = as compared to TAT-inactive BH3
# [7] = seven days post-serum transfer, mean ± standard error
# [8] = TAT-BH3 vs TAT-inactive BH3 and saline
smiles,measurement,setting,value
CC[C@H](C)[C@H](NC(=O)[C@H](CCCNC(=N)N)NC(=O)[C@H](CCCNC(=N)N)NC(=O)[C@H](CC(C)C)NC(=O)[C@H](CCC(=O)O)NC(=O)[C@H](CCC(N)=O)NC(=O)[C@H](C)NC(=O)[C@@H](NC(=O)[C@H](Cc1c[nH]c2ccccc12)NC(=O)[C@@H](NC(=O)[C@H](CCC(=O)O)NC(=O)[C@H](CCCNC(=N)N)NC(=O)[C@H](CCCNC(=N)N)NC(=O)[C@H](CCCNC(=N)N)NC(=O)[C@H](CCCN)NC(=O)[C@H](CCCNC(=N)N)NC(=O)[C@H](CCCNC(=N)N)NC(=O)[C@H](CCCCN)NC(=O)[C@H](CCCCN)NC(=O)[C@H](CCCNC(=N)N)NC(C)=O)[C@@H](C)CC)[C@@H](C)CC)C(=O)NCC(=O)N[C@@H](CC(=O)O)C(=O)N[C@@H](CCC(=O)O)C(=O)N[C@@H](Cc1ccccc1)C(=O)N[C@@H](CC(N)=O)C(=O)N[C@@H](C)C(=O)N[C@@H](Cc1ccc(O)cc1)C(=O)N[C@@H](Cc1ccc(O)cc1)C(=O)N[C@@H](C)C(=O)N[C@@H](CCCNC(=N)N)C(=O)O [TAT-BH3] (Ac-RKKRR[Orn]RRREIWIAQELRRIGDEFNAYYAR-OH),change in ankle circumference,"[1]; day 2 after K/B×N serum, 2 mg/kg i.p.",0.1 mm
same,reduction of development of arthritis,[1]; as compared to TAT-inactive BH3 peptide,72%
same,reduction of development of arthritis,[1]; as compared to saline,80%
same,average number of macrophages in the synovial lining,[2]; [6],no statistical difference
same,decrease in numbers of macrophages within the pannus region,[2]; [6],68%
same,decrease in numbers of macrophages within the pannus region,[2]; as compared to saline,77%
same,IL-1β,[3]; [7],522 ± 127
same,KC,[3]; [7],308 ± 78
same,MCP-1,[3]; [7],131 ± 28
same,MMP-3,[3]; [7],9 ± 3
same,TNFα,[3]; [7],4.5 ± 0.3
same,change in level of TNFα,[3]; vs saline or TAT-inactive BH3,no change
same,decrease in level of IL-1β,[3]; vs saline or TAT-inactive BH3,37%
same,levels of MMP-3 reduced,[3]; vs saline or TAT-inactive BH3,47%
same,production of KC diminished,[3]; vs saline or TAT-inactive BH3,28%
same,production of MCP-1 diminished,[3]; vs saline or TAT-inactive BH3,47%
same,"circulating levels of IL-1β, TNFα, MCP-1, and KC in serum",[4],no differences
same,ALT levels,[5]; [8],statistical difference
same,BUN levels,[5]; [8],statistical difference
same,increase in ALP levels,[5]; [6],1.7 fold
same,increase in AST levels,[5]; [6],1.5 fold
same,increase in ALP levels,[5]; as compared to saline,1.4 fold
same,increase in AST levels,[5]; as compared to saline,1.3 fold
same,liver histology,[5]; liver sections of arthritic mice,no gross histologic abnormalities
